Results on one substance are retold here after patent US20240122978A1, “RETROVIRAL VECTOR FOR UNIVERAL RECEPTOR THERAPY” (Umoja BioPharma, Inc., priority 2019, published 2024).

Entries after “also recorded” stand apart in the source; their conditions may differ.

The test deals with CAR-expressing T cells. The experiment in a line: Assessment of CAR expression and activation by flow cytometry. The test is classed as cell-based. The following applies: FITC coated beads or plate bound FITC; FIGS. 2A-2F. The method, then:
Cells were transferred to individual wells of a 96-well V-bottom plate, the plate was spun at 400×g for 5 min, cells were washed with 200 μL PBS and spun again at 400×g for 5 min. Cells were incubated for 10 min at room temperature in 50 μL/well Zombie NIR Fixable Viability Dye (diluted 1:3000 in PBS). Cells were then washed with […] buffer (1×PBS+2% FBS) and the plate was spun at 400×g for 5 min. Next, 50 μL/well of surface stain in FACS buffer were added to the cells and incubated for 45 min at 4° C.
Cells were washed with 150 μL FACS buffer and the plate was spun at 400×g for 5 min. Cells were then fixed with 100 μL/well of BD Cytofix/Cytoperm buffer for 20 min at 4° C. Cells were then washed with 100 μL BD Perm/Wash diluted 10-fold in water and the plate was spun at 400×g for 5 min. Cells were washed again with 200 μL BD Perm/Wash diluted 10-fold in water and the plate was spun again at 400×g for 5 min. 50 μL/well of intracellular stain in 1×BD Perm/Wash was added to the cells and incubated for 30 min at 4° C. Cells were washed with 150 μL, FACS buffer, the plate was spun at 400×g for 5 min and the cells were resuspended in 200 μL FACS buffer for analysis using a Beckman Coulter CytoFLEX S cytometer. As depicted in FIGS. 2A-2F, CAR-expressing T cells expand in the presence of the antigen FITC and this expansion is enhanced with rapamycin. […]
(In general: A flow cytometer gives signals particle by particle.)

Turning to fluorescein isothiocyanate [FITC], the “expansion/enrichment of CAR-expressing T cells in the presence of the antigen FITC” value was “enriched; also recorded: enhanced expansion and activation; also recorded: expand”.
